Reference: ChEMBL document CHEMBL5724806, “Unraveling interindividual differences and functional consequences of gut microbial metabolism of immunosuppressants” (2024)

Key:
Assay type in all cases: ADME
[1] = The drug is tested on Collinsella aerofaciens strain: DSM3979 for biotransformation under anaerobic condition. The drug concentrations were measured over 6 timepoints collected between 0 and 12 hours of incubation by liquid-chromatography-coupled mass spectrometry (LC–MS); design: dose 5 uM, timepoint 0, 1.5, 3, 6, 9, 12 hours; conditions: 5 µM
[2] = The drug is tested on Capnocytophaga ochracea strain: DSM7271 for biotransformation under anaerobic condition. The drug concentrations were measured over 6 timepoints collected between 0 and 12 hours of incubation by liquid-chromatography-coupled mass spectrometry (LC–MS); design: dose 5 uM, timepoint 0, 1.5, 3, 6, 9, 12 hours; conditions: 5 µM
[3] = The drug is tested on Odoribacter splanchnicus strain: DSM20712 for biotransformation under anaerobic condition. The drug concentrations were measured over 6 timepoints collected between 0 and 12 hours of incubation by liquid-chromatography-coupled mass spectrometry (LC–MS); design: dose 5 uM, timepoint 0, 1.5, 3, 6, 9, 12 hours; conditions: 5 µM
[4] = The drug is tested on Parabacteroides merdae strain: DSM19495 for biotransformation under anaerobic condition. The drug concentrations were measured over 6 timepoints collected between 0 and 12 hours of incubation by liquid-chromatography-coupled mass spectrometry (LC–MS); design: dose 5 uM, timepoint 0, 1.5, 3, 6, 9, 12 hours; conditions: 5 µM
[5] = The drug is tested on Prevotella copri strain: DSM18205 for biotransformation under anaerobic condition. The drug concentrations were measured over 6 timepoints collected between 0 and 12 hours of incubation by liquid-chromatography-coupled mass spectrometry (LC–MS); design: dose 5 uM, timepoint 0, 1.5, 3, 6, 9, 12 hours; conditions: segatella copri, 5 µM
[6] = The drug is tested on Eubacterium rectale strain: DSM17629 for biotransformation under anaerobic condition. The drug concentrations were measured over 6 timepoints collected between 0 and 12 hours of incubation by liquid-chromatography-coupled mass spectrometry (LC–MS); design: dose 5 uM, timepoint 0, 1.5, 3, 6, 9, 12 hours; conditions: agathobacter rectalis, 5 µM
[7] = The drug is tested on Lactobacillus paracasei strain: ATCC27092 for biotransformation under anaerobic condition. The drug concentrations were measured over 6 timepoints collected between 0 and 12 hours of incubation by liquid-chromatography-coupled mass spectrometry (LC–MS); design: dose 5 uM, timepoint 0, 1.5, 3, 6, 9, 12 hours; conditions: lacticaseibacillus paracasei, 5 µM
[8] = The drug is tested on Ruminococcus gnavus strain: ATCC29149 for biotransformation under anaerobic condition. The drug concentrations were measured over 6 timepoints collected between 0 and 12 hours of incubation by liquid-chromatography-coupled mass spectrometry (LC–MS); design: dose 5 uM, timepoint 0, 1.5, 3, 6, 9, 12 hours; conditions: mediterraneibacter gnavus, 5 µM
[9] = The drug is tested on Streptococcus anginosus strain: DSM20563 for biotransformation under anaerobic condition. The drug concentrations were measured over 6 timepoints collected between 0 and 12 hours of incubation by liquid-chromatography-coupled mass spectrometry (LC–MS); design: dose 5 uM, timepoint 0, 1.5, 3, 6, 9, 12 hours; conditions: 5 µM
[10] = The drug is tested on Streptococcus sanguinis strain: DSM20567 for biotransformation under anaerobic condition. The drug concentrations were measured over 6 timepoints collected between 0 and 12 hours of incubation by liquid-chromatography-coupled mass spectrometry (LC–MS); design: dose 5 uM, timepoint 0, 1.5, 3, 6, 9, 12 hours; conditions: 5 µM
[11] = The drug is tested on Actinomyces graevenitzii strain: DSM15540 for biotransformation under microaerobic condition. The drug concentrations were measured over 6 timepoints collected between 0 and 12 hours of incubation by liquid-chromatography-coupled mass spectrometry (LC–MS); design: dose 5 uM, timepoint 0, 1.5, 3, 6, 9, 12 hours; conditions: 5 µM
[12] = The drug is tested on Lactobacillus gasseri strain: DSM20243 for biotransformation under microaerobic condition. The drug concentrations were measured over 6 timepoints collected between 0 and 12 hours of incubation by liquid-chromatography-coupled mass spectrometry (LC–MS); design: dose 5 uM, timepoint 0, 1.5, 3, 6, 9, 12 hours; conditions: 5 µM
[13] = The drug is tested on Lactobacillus reuteri strain: DSM20016 for biotransformation under microaerobic condition. The drug concentrations were measured over 6 timepoints collected between 0 and 12 hours of incubation by liquid-chromatography-coupled mass spectrometry (LC–MS); design: dose 5 uM, timepoint 0, 1.5, 3, 6, 9, 12 hours; conditions: limosilactobacillus reuteri, 5 µM
[14] = The drug is tested on Streptococcus salivarius strain: DSM20560 for biotransformation under microaerobic condition. The drug concentrations were measured over 6 timepoints collected between 0 and 12 hours of incubation by liquid-chromatography-coupled mass spectrometry (LC–MS); design: dose 5 uM, timepoint 0, 1.5, 3, 6, 9, 12 hours; conditions: 5 µM
[15] = The drug is tested on Streptococcus sanguinis strain: DSM20567 for biotransformation under microaerobic condition. The drug concentrations were measured over 6 timepoints collected between 0 and 12 hours of incubation by liquid-chromatography-coupled mass spectrometry (LC–MS); design: dose 5 uM, timepoint 0, 1.5, 3, 6, 9, 12 hours; conditions: 5 µM
[16] = The drug is tested on the gut metagenome community of A-04 with ENA study accession number: PRJEB31790 for biotransformation under anaerobic condition. The drug concentrations were measured over 7 timepoints collected between 0 and 12 hours of incubation by liquid-chromatography-coupled mass spectrometry (LC–MS); design: dose 5 uM, timepoint 0, 0.75, 1.5, 3, 6, 9, 12 hours; conditions: 5 µM
[17] = The drug is tested on the gut metagenome community of A-06 with ENA study accession number: PRJEB31790 for biotransformation under anaerobic condition. The drug concentrations were measured over 7 timepoints collected between 0 and 12 hours of incubation by liquid-chromatography-coupled mass spectrometry (LC–MS); design: dose 5 uM, timepoint 0, 0.75, 1.5, 3, 6, 9, 12 hours; conditions: 5 µM
[18] = The drug is tested on the gut metagenome community of P-01 with ENA study accession number: PRJEB31790 for biotransformation under anaerobic condition. The drug concentrations were measured over 7 timepoints collected between 0 and 12 hours of incubation by liquid-chromatography-coupled mass spectrometry (LC–MS); design: dose 5 uM, timepoint 0, 0.75, 1.5, 3, 6, 9, 12 hours; conditions: 5 µM
[19] = The drug is tested on the gut metagenome community of P-03 with ENA study accession number: PRJEB31790 for biotransformation under anaerobic condition. The drug concentrations were measured over 7 timepoints collected between 0 and 12 hours of incubation by liquid-chromatography-coupled mass spectrometry (LC–MS); design: dose 5 uM, timepoint 0, 0.75, 1.5, 3, 6, 9, 12 hours; conditions: 5 µM
[20] = The drug is tested on the gut metagenome community of T-02 with ENA study accession number: PRJEB31790 for biotransformation under anaerobic condition. The drug concentrations were measured over 7 timepoints collected between 0 and 12 hours of incubation by liquid-chromatography-coupled mass spectrometry (LC–MS); design: dose 5 uM, timepoint 0, 0.75, 1.5, 3, 6, 9, 12 hours; conditions: 5 µM
[21] = The drug is tested on the gut metagenome community of T-03 with ENA study accession number: PRJEB31790 for biotransformation under anaerobic condition. The drug concentrations were measured over 7 timepoints collected between 0 and 12 hours of incubation by liquid-chromatography-coupled mass spectrometry (LC–MS); design: dose 5 uM, timepoint 0, 0.75, 1.5, 3, 6, 9, 12 hours; conditions: 5 µM
[22] = The drug is tested on the gut metagenome community of T-04 with ENA study accession number: PRJEB31790 for biotransformation under anaerobic condition. The drug concentrations were measured over 7 timepoints collected between 0 and 12 hours of incubation by liquid-chromatography-coupled mass spectrometry (LC–MS); design: dose 5 uM, timepoint 0, 0.75, 1.5, 3, 6, 9, 12 hours; conditions: 5 µM
[23] = The drug is tested on the gut metagenome community of A-01 with ENA study accession number: PRJEB31790 for biotransformation under microaerobic condition. The drug concentrations were measured over 7 timepoints collected between 0 and 12 hours of incubation by liquid-chromatography-coupled mass spectrometry (LC–MS); design: dose 5 uM, timepoint 0, 0.75, 1.5, 3, 6, 9, 12 hours; conditions: 5 µM
[24] = The drug is tested on the gut metagenome community of A-10 with ENA study accession number: PRJEB31790 for biotransformation under microaerobic condition. The drug concentrations were measured over 7 timepoints collected between 0 and 12 hours of incubation by liquid-chromatography-coupled mass spectrometry (LC–MS); design: dose 5 uM, timepoint 0, 0.75, 1.5, 3, 6, 9, 12 hours; conditions: 5 µM
[25] = The drug is tested on the gut metagenome community of T-02 with ENA study accession number: PRJEB31790 for biotransformation under microaerobic condition. The drug concentrations were measured over 7 timepoints collected between 0 and 12 hours of incubation by liquid-chromatography-coupled mass spectrometry (LC–MS); design: dose 5 uM, timepoint 0, 0.75, 1.5, 3, 6, 9, 12 hours; conditions: 5 µM

SMILES	Bacterial Biotransformation [1]	Bacterial Biotransformation [2]	Bacterial Biotransformation [3]	Bacterial Biotransformation [4]	Bacterial Biotransformation [5]	Bacterial Biotransformation [6]	Bacterial Biotransformation [7]	Bacterial Biotransformation [8]	Bacterial Biotransformation [9]	Bacterial Biotransformation [10]	Bacterial Biotransformation [11]	Bacterial Biotransformation [12]	Bacterial Biotransformation [13]	Bacterial Biotransformation [14]	Bacterial Biotransformation [15]	Bacterial Biotransformation [16]	Bacterial Biotransformation [17]	Bacterial Biotransformation [18]	Bacterial Biotransformation [19]	Bacterial Biotransformation [20]	also measured
Cn1cnc([N+](=O)[O-])c1Sc1ncnc2nc[nH]c12 [AZATHIOPRINE]	Compound metabolized	Compound NOT metabolized	Compound NOT metabolized	Compound metabolized	Compound metabolized	Compound metabolized	Compound metabolized	Compound metabolized	Compound metabolized	Compound metabolized	Compound metabolized	Compound NOT metabolized	Compound metabolized	Compound metabolized	Compound NOT metabolized	Compound metabolized	Compound metabolized	Compound metabolized	Compound NOT metabolized	Compound NOT metabolized	Bacterial Biotransformation [21]: Compound NOT metabolized; Bacterial Biotransformation [22]: Compound NOT metabolized; Bacterial Biotransformation [23]: Compound NOT metabolized; Bacterial Biotransformation [24]: Compound NOT metabolized; Bacterial Biotransformation [25]: Compound NOT metabolized
C[C@H]1C[C@H]2[C@@H]3CCC4=CC(=O)C=C[C@]4(C)[C@@]3(F)[C@@H](O)C[C@]2(C)[C@@]1(O)C(=O)CO [BETAMETHASONE]	Compound NOT metabolized	Compound NOT metabolized	Compound NOT metabolized	Compound NOT metabolized	Compound NOT metabolized	Compound NOT metabolized	Compound NOT metabolized	Compound NOT metabolized	Compound NOT metabolized	Compound NOT metabolized	Compound NOT metabolized	Compound NOT metabolized	Compound NOT metabolized	Compound NOT metabolized	Compound NOT metabolized	Compound metabolized	Compound metabolized	Compound NOT metabolized	Compound metabolized	Compound metabolized	Bacterial Biotransformation [21]: Compound NOT metabolized; Bacterial Biotransformation [22]: Compound NOT metabolized; Bacterial Biotransformation [23]: Compound NOT metabolized; Bacterial Biotransformation [24]: Compound NOT metabolized; Bacterial Biotransformation [25]: Compound metabolized
CCCC1O[C@@H]2C[C@H]3[C@@H]4CCC5=CC(=O)C=C[C@]5(C)[C@H]4[C@@H](O)C[C@]3(C)[C@]2(C(=O)CO)O1 (stereo not given in full) [BUDESONIDE]	Compound NOT metabolized	Compound NOT metabolized	Compound NOT metabolized	Compound NOT metabolized	Compound NOT metabolized	Compound NOT metabolized	Compound NOT metabolized	Compound NOT metabolized	Compound NOT metabolized	Compound NOT metabolized	Compound NOT metabolized	Compound NOT metabolized	Compound NOT metabolized	Compound NOT metabolized	Compound NOT metabolized	Compound NOT metabolized	Compound metabolized	Compound metabolized	Compound metabolized	Compound NOT metabolized	Bacterial Biotransformation [21]: Compound NOT metabolized; Bacterial Biotransformation [22]: Compound NOT metabolized; Bacterial Biotransformation [23]: Compound NOT metabolized; Bacterial Biotransformation [24]: Compound metabolized; Bacterial Biotransformation [25]: Compound NOT metabolized
